Source: patent publication US9598407B2, “Antibacterial piperidinyl substituted 3,4-dihydro-1H-[1,8]naphthyridinones” (JANSSEN SCIENCES IRELAND UC, priority 2011, dated 2017)
Converted amounts (≈) assume the structure as drawn.

Key:
Human HelaM cells = test: Cytotoxicity MTT assay (TOX HELAM 222.125); format: cell-based; details: 72 hours
Experimental: Cytotoxicity of the compounds was evaluated using the MTT assay. Human HelaM cells grown in 96-well plates were exposed to serial dilutions of the tested compounds (final volume of 0.2 ml) and incubated for 72 hours at 37° C. and 5% CO2 Inhibitors are typically varied over the range of 25 to 0.8 μM. The final DMSO concentration in the assay is 0.5%. MTT (3-(4,5-Dimethylthiazol-2-yl)-2,5-diphenyltetrazolium bromide, a tetrazole) was added and reduced to purple formazan only in living cells. Solubilization of the formazan crystals was achieved by adding 100 μl 2-propanol. Cell viability was determined by measuring the absorbance of the reduced formazan, giving a purple color, at 540 nm and 690 nm. The absorbance measured at 690 nm was automatically subtracted from the absorbance at 540 nm, to eliminate the effects of non-specific absorption. The percent cytotoxicity achieved by the compounds was calculated according to standard methods. Cytotoxicity is reported as CC50, the concentration that causes a 50% reduction in cell viability.
The results are depicted in the table D2 below (TOX HELAM).

E. coli tolC mutant = test: Antimicrobial spectrum, CLSI broth microdilution MIC; format: cell-based, Escherichia coli; details: MHB
Experimental: (§1) Minimum Inhibitory Concentrations (MICs) were determined in accordance with the Clinical and Laboratory Standards Institute (CLSI) methodology against aerobic bacteria (CLSI M07-A8) (see Clinical and Laboratory Standards Institute. 2009. Methods for dilution antimicrobial susceptibility tests for bacteria that grow aerobically. CLSI document M07-A8, Vol. 29, No. 2.) by the broth microdilution method with cation-adjusted Mueller-Hinton broth (CA-MHB) medium for the majority of organisms, except for Haemophilus influenza, where Haemophilis test medium (HTM) broth was used. Descriptions of the individual organisms can be found in the table. Where possible, ATCC standard strains were tested.
(§2) The inoculum density for the susceptibility testing was standardized to give a final inoculum of approximately 5×10^5 CFU/mL.
(§3) Stock solutions of the compounds were prepared in DMSO at concentrations of 1 mg/mL. Linezolid was prepared in DMSO at a concentration of 2 mg/mL. Stock solutions of all compounds were diluted into CA-MHB to give a range of two-fold dilutions, depending upon the sensitivity of the organism being tested.

E. coli ATCC 25922 = test: as above; format: cell-based, Escherichia coli; details: reference strain, MHB
Experimental: as §1, §2, §3

[1] = target: S. aureus ATCC 29213 FabI (Staphylococcus aureus (strain MRSA252), UniProt Q6GI75); test: Staphylococcus aureus FabI enzyme inhibition assay; format: biochemical; details: 30 minutes at room temperature, pH 6.5
Experimental: D.1 FabI Enzyme Inhibition: Staphylococcus aureus FabI Enzyme Inhibition Assay
FabI enzyme inhibition assays were carried out in half-area, 384-well microtitre plates. Compounds were evaluated in 40-μl assay mixtures containing 100 mM NaADA, pH 6.5 (ADA=N-[2-acetamido]-2iminodiacetic acid), 250 μM crotonoyl-CoA, 625 μM NADH and 50 μg/ml S. aureus ATCC 29213 FabI Inhibitors were typically varied over the range of 50 to 0.39 μM. The reaction mixtures were incubated for 30 minutes at room temperature and the reaction was stopped by adding 200 mM Tris buffer (pH 9.0) to create a pH-shift. The consumption of NADH was monitored by measuring the change in absorbance at […]. By comparing sample readings to those of negative (absence of compound) and positive (absence of enzyme) controls, the percent inhibition of enzymatic activity of the compounds was determined A best-fit curve is fitted by a minimum of squares method. From this an IC50-value (expressed in μg/ml), resulting in 50% inhibition of enzymatic activity, was obtained.

[2] = In vivo pharmacokinetic and oral bioavailability; details: male Swiss mice
Experimental: The in vivo pharmacokinetics and oral bioavailability of the compound of the examples was/is investigated in male Swiss mice (fed) following single intravenous (i.v.) bolus and oral (p.o.) administration. For the i.v. and p.o. solution formulations, the compound was/is dissolved in a 20% HP-β-CD solution. The pH of the formulations was/is around pH 4. All i.v. formulations were isotonic.

S. aureus = test: Antibacterial susceptibility testing, IC90 with 10% human serum (STA + 10% HS 361.169); format: cell-based, Staphylococcus aureus; details: S. aureus with 10% human serum
Experimental: (§4) The following bacteria were used: Staphylococcus aureus ATCC 29213, methicillin-resistant Staphylococcus aureus (MRSA) ATCC 700788 and Escherichia coli ATCC 35218. The bacteria used in this study were grown overnight in flasks containing 100 ml Mueller-Hinton broth (Difco cat. nr. 0757-17) in sterile de-ionized water, with shaking, at 37° C. Stocks were store at −70° C. until use.
(§5) Bacteria were incubated on a tryptic soy agar plate containing 5% sheep blood (Becton Dickinson cat. nr. 254053) for 18-24 hours at 35° C. in aerobic conditions (first passage). For the second passage, fresh Mueller-Hinton broth is inoculated with 5-10 colonies and grown overnight at 35° C. until turbidity (reaching log-phase) in aerobic conditions is reached. The bacterial suspension is then adjusted to 0.5 McFarland density and further diluted 1:100 in Mueller Hinton broth medium. This is used as inoculum.
(§6) MIC assays were performed by the broth microdilution method in a 96-well format (flat-bottom microtitre plates) with a final volume of 0.1 ml Mueller Hinton broth containing two-fold serial dilutions of compounds and inoculated with 5×10^5 CFU/ml of bacteria (standard inoculum size according to CLSI guidelines). Inhibitors are typically varied over the range of 63 to 0.49 μM. The final DMSO concentration in the assay was 1.25% (maximum tolerable DMSO concentration=6%). In the assays where the effect of human serum on the activity of the compounds against S. aureus was tested, human serum was added at a final concentration of 10%. The plates were incubated at 35° C. for 16-20 hours. At the end of incubation the bacterial growth was quantified fluorometrically. For this, resazurin was added to all wells and the plates were re-incubated. The incubation time is dependent on the type of bacteria. A change in color from blue to pink indicated the growth of bacteria. The fluorescence was read in computer-controlled fluorometer (Fluoroskan Ascent FL, Labsystems) at an excitation wavelength 540 nm and an emission wavelength of 590 nm. The % growth inhibition achieved by the compounds was calculated according to standard methods. The IC90 (expressed in μg/ml) was defined as the 90% inhibitory concentration for bacterial growth. A panel of reference compounds were simultaneously tested for QC approval.
The results are depicted in the table D2 below (STA+10% HS).

[3] = tested on: Staphylococcus aureus ATCC 29213; test: Antibacterial susceptibility testing, IC90 determination (STA 361.159); format: cell-based; details: STA ATCC 29213; 90% inhibitory concentration for bacterial growth
Experimental: D.2 In Vitro Method for Testing Compounds for Antibacterial Activity Against Various Bacterial Strains Preparation of Bacterial Suspensions for Susceptibility Testing
as §4, §5
Antibacterial Susceptibility Testing: IC90 Determination
as §6

M. catarrhalis ATCC 8176 = test: Antimicrobial spectrum, CLSI broth microdilution MIC; format: cell-based, Moraxella catarrhalis; details: b-lactamase negative, MHB
Experimental: as §1, §2, §3

H. influenza ATCC 49247 = test: as above; format: cell-based, Haemophilus influenzae; details: HTM broth
Experimental: as §1, §2, §3

S. aureus NRS119 = test: as above; format: cell-based, Staphylococcus aureus; details: LZD-R, MHB
Experimental: as §1, §2, §3

S. aureus ATCC 29213 = test: as above; format: cell-based, Staphylococcus aureus; details: reference strain MSSA, MHB
Experimental: as §1, §2, §3

S. aureus ATCC 43300 = test: as above; format: cell-based, Staphylococcus aureus; details: reference strain MRSA, MHB
Experimental: as §1, §2, §3

S. aureus NRS120 = test: as above; format: cell-based, Staphylococcus aureus; details: LZD-R, MHB
Experimental: as §1, §2, §3

S.aureus NRS121 = test: as above; format: cell-based, Staphylococcus aureus; details: LZD-R, MHB
Experimental: as §1, §2, §3

In the case of `O=C1CCc2cc(/C=C/C(=O)N3CCC(Cc4cccs4)CC3)cnc2N1` [compound 37], the “TOX HELAM (222.125) CC50” value (Human HelaM cells) is reported as 19.12 µg/mL, the MIC90 (E. coli tolC mutant) is reported as >8 µg/mL and the MIC90 (E. coli ATCC 25922) is reported as >8 µg/mL. For the same compound, the “FabI IC50” value [1] was 0.50 µg/mL, the AUC0-inf ([2]; i.v., 2.5 mg/kg) was 7464 ng·h/mL and the “Half life (t1/2)” value ([2]; i.v., 2.5 mg/kg) was 2.7 h. For the same compound, the “Plasma clearance Cl” value ([2]; i.v., 2.5 mg/kg) was 5.5 mL/min/kg, the Vdz ([2]; i.v., 2.5 mg/kg) was 1.3 L/kg and the C0 ([2]; i.v., 2.5 mg/kg, 20% HP-β-CD solution) was 2929 ng/mL. For the same compound, the Oral bioavailability ([2]; p.o. 10 mg/kg vs i.v. 2.5 mg/kg) was 72%, the AUC0-inf ([2]; p.o., 10 mg/kg) was 21394 ng·h/mL and the “Half life (t1/2)” value ([2]; p.o., 10 mg/kg) was 3.2 h. For the same compound, the Tmax ([2]; p.o., 10 mg/kg) was 2.0 h, the Cmax ([2]; p.o., 10 mg/kg, 20% HP-β-CD solution) was 2950 ng/mL and the “STA + 10% HS (361.169) IC90” value (S. aureus) was 0.36 µg/mL. The “STA (361.159) IC90” value [3] was 0.30 µg/mL, the MIC90 (M. catarrhalis ATCC 8176) was 1 µg/mL (≈ 2.62 µM) and the MIC90 (H. influenza ATCC 49247) was >8 µg/mL. The MIC90 (S. aureus NRS119) was 0.125 µg/mL (≈ 0.328 µM), the MIC90 (S. aureus ATCC 29213) was 0.125 µg/mL (≈ 0.328 µM) and the MIC90 (S. aureus ATCC 43300) was 0.125 µg/mL (≈ 0.328 µM). For the same compound, the MIC90 (S. aureus NRS120) was 0.125 µg/mL (≈ 0.328 µM) and the MIC90 (S.aureus NRS121) was 0.125 µg/mL (≈ 0.328 µM).

For `O=C1CCc2cc(/C=C/C(=O)N3CCC(c4cccc(O)c4)CC3)cnc2N1` [compound 5], the “TOX HELAM (222.125) CC50” value (Human HelaM cells) was >9.481 µg/mL, the “FabI IC50” value [1] was 0.35 µg/mL and the “STA + 10% HS (361.169) IC90” value (S. aureus) was 11.14 µg/mL. The “STA (361.159) IC90” value [3] was 10.52 µg/mL.

In the case of `COc1cccc(C2=CCN(C(=O)/C=C/c3cnc4c(c3)CCC(=O)N4)CC2)c1` [compound 22], the “TOX HELAM (222.125) CC50” value (Human HelaM cells) is reported as >9.783 µg/mL, the “FabI IC50” value [1] is reported as 0.93 µg/mL and the “STA + 10% HS (361.169) IC90” value (S. aureus) is reported as >24.5733 µg/mL. For the same compound, the “STA (361.159) IC90” value [3] was 21.16 µg/mL.
